# Source: US11643438B2, “Antimicrobial peptides and methods of use” (priority 2018, dated 2023)
# “Also recorded” adds a separate entry of the source. Where two headings read alike, the source gives them in different places. *1 amine or outer side, *2 acyl side, *3 side chain or, on linkers, in order; H or OH if unused. Where a SMILES comes first, the peptide text is derived from it. [ ]: non-standard residue; d: D form. X2 = CC[C@H](C)C[C@H](C)C[C@H](C)C[C@H](N[*:1])C(=O)[*:2]; X1 = CC[C@@H](C)[C@@H](O[*:1])C(=O)[*:2]; NMeVal(β-OH) = CN[C@H](C(=O)O)C(C)(C)O; aIle = CC[C@@H](C)[C@H](N)C(=O)O; NMeV = CN[C@H](C(=O)O)C(C)C; Sar = CNCC(=O)O
# Tests used:
# Candida albicans SC5314 = test: Ex vivo model of fungal keratitis (porcine cornea)
# C. albicans SC5314 Flu^R = test: Ex vivo model of fungal keratitis (porcine cornea); set-up: species or system Candida albicans
# [1] = tested on: Aspergillus fumigatus NRRL5109; test: Ex vivo model of fungal keratitis (porcine cornea); details: for effect of different doses on fungal growth: FIG. 10
# [2] = Mammalian cell cytotoxicity assay (calcein/Hoechst); type: cell-based; details: human, read-out: LC50
# Experimental: Cell cytotoxicity was tested against the human liver cancer cell line HepG2 and the HPV-immortalized ectocervical epithelium cell line Ect1/E6E7. The HepG2 cells were cultured in the EMEM medium supplemented with 5% FetalClone III and penicillin/streptomycin (5 Units/mL, 50 ug/mL). The Ect1/E6E7 cells were grown in the RPMI 1640 medium supplemented with 5% FetalClone III, EGF (10 ng/mL Novoprotein #C029), and penicillin/streptomycin (5 Units/mL, 50 ug/mL). For the assays, 5,000 HepG2 or Ect1/E6E7 cells were seeded into each well of a 96-well plate and allowed to attach overnight in a 37° C. humidified incubator. The next day, test compounds were diluted in DMSO, added to the wells at a final DMSO concentration of 0.5% and cells were incubated for an additional 48 hours. Cell viability was determined by the Calcein and Hoechst Assay on the Perkin Elmer Operetta. In each assay, 5 μL of the fluorescent dyes (40 μM calcein AM and 160 μM Hoechst 33342 in DMSO) and 25 μL PBS were added into each well. Plates were incubated for 30 minutes and then analyzed on the Operetta. The Harmony software was used to calculate the whole-cell area by finding all the Hoechst-labeled nuclei. The live and dead cells were assessed based on a threshold of the green calcein fluorescence. […]
# Alternaria brassicicola = test: MIC/MFC against phytopathogenic (endophytic) fungi
# Alternaria brassicae = test: MIC/MFC against phytopathogenic (endophytic) fungi
# Alternaria tennuissiema = test: MIC/MFC against phytopathogenic (endophytic) fungi
# Fusarium oxysporum = test: MIC/MFC against phytopathogenic (endophytic) fungi
# Mycosphaerella populorum = test: MIC/MFC against phytopathogenic (endophytic) fungi; details: Sphaerulina musiva
# Nodulosporium spp. = test: MIC/MFC against phytopathogenic (endophytic) fungi
# P. glomerata = test: MIC/MFC against phytopathogenic (endophytic) fungi
compound,measurement,setting,value
"CC[C@H](C)C[C@H](C)C[C@H](C)C[C@@H]1NC(=O)[C@H](C(C)C)N(C)C(=O)[C@@H]([C@H](C)CC)OC(=O)[C@H](C(C)(C)O)N(C)C(=O)[C@H](CC(C)C)NC(=O)[C@H](C(C)C)N(C)C(=O)[C@H]([C@H](C)CC)NC(=O)[C@@H]2CCCN2C(=O)CN(C)C1=O [Compound 1, persephacin] (cyclo(L[NMeVal(β-OH)][X1][NMeV][X2][Sar]P[aIle][NMeV]))","antifungal activity (fungal growth/infection), in words","Candida albicans SC5314; 0.1% 118A, 2% fluconazole, 5% natamycin, FIG. 11",inhibited the growth; also recorded: eliminated the fungus
same,effect of different doses on fungal growth,"Candida albicans SC5314; 50-1,000 μg/mL, FIG. 8",effective at reducing or eliminating the fungus
same,CFU,"Candida albicans SC5314; 118A 0.1% (1 mg/ml), natamycin 5% (50 mg/ml), fluconazole 2% (20 mg/ml)",0 CFU
same,CFU,"C. albicans SC5314 Flu^R; C. albicans SC5314 Flu^R, 118A 0.1% (1 mg/ml), natamycin 5% (50 mg/ml), fluconazole 2% (20 mg/ml)",0 CFU
same,effect of different doses on fungal growth,"C. albicans SC5314 Flu^R; Candida albicans SC5314FluR, 50-1,000 μg/mL, FIG. 9",effective at reducing or eliminating the fungus
same,effect of different doses on fungal growth,"[1]; Aspergillus fumigatus NRRL 5109, 1,000 μg/mL",eliminating
same,"antifungal activity (fungal growth/infection), in words","[1]; Aspergillus fumigatus NRRL 5109, 0.1% 118A, 2% fluconazole, 5% natamycin, FIG. 13",inhibited the growth; also recorded: eliminated the fungus
same,effect of different doses on fungal growth,"[1]; Aspergillus fumigatus NRRL 5109, 50-250 μg/mL",effective at reducing
same,CFU,"[1]; Aspergillus fumigatus NRRL5109, 118A 0.1% (1 mg/ml), natamycin 5% (50 mg/ml), fluconazole 2% (20 mg/ml)",0 CFU
same,CC50 at 48 h,"[2]; Ect1/E6E7 cells (HPV-immortalized ectocervical epithelium), Ect1/E6E7 cell line",30 µM
same,CC50 at 48 h,"[2]; HepG2 cells, HepG2 cell line",30 µM
same,MFC,Alternaria brassicicola,20 µM
same,MIC,Alternaria brassicicola,5 µM
same,MFC,Alternaria brassicae,2.5 µM
same,MIC,Alternaria brassicae,1.25 µM
same,MFC,Alternaria tennuissiema,10 µM
same,MIC,Alternaria tennuissiema,10 µM
same,MFC,Fusarium oxysporum,20 µM
same,MIC,Fusarium oxysporum,5 µM
same,MFC,Mycosphaerella populorum,10 µM
same,MIC,Mycosphaerella populorum,2.5 µM
same,MFC,Nodulosporium spp.,> 20 µM
same,MIC,Nodulosporium spp.,> 20 µM
same,MFC,"Nodulosporium spp.; Nodulosporium spp., […]",neither compound showed MIC or MFC activity
same,MIC,"Nodulosporium spp.; Nodulosporium spp., […]",neither compound showed MIC or MFC activity
same,MFC,P. glomerata,1.25 µM
same,MIC,P. glomerata,0.625 µM
same,MIC,"P. glomerata; P. glomerata, […], listed as Persephacin A",.625 µM
